# According to patent publication US20100151001A1, “ETHYNYLATED HETERODINUCLEOSIDE PHOSPHATE ANALOGS, METHOD FOR THE PRODUCTION THEREOF, AND USE THEREOF” (Eberhard Karls Universitat Tubingen, priority 2007, published 2010):
# Assays:
# A549/ATCC = assay: cells; assay type: cell-based; details: for TGI: A549/ATCC (lung), 100% growth inhibition, 48 h incubation, SRB; for CC50: Homo sapiens, A549, 48 h, read-out: LC50
# Method: (§1) Tumor cell lines, whose 100% growth inhibition (TGI) by the compounds according to the invention is determined at various concentrations, serve as the test system. The toxicity (LC50) of the compound to these cells is also determined. On day 0, a series of microtiter plates is inoculated with the tumor cells and preincubated for 24 h. Then the compound according to the invention is added to the cells in five in each case 10-fold diluted concentration, starting from the highest soluble concentration. After incubation for 48 hours, the cells are fixed in situ, washed and dried. Then sulforhodamine B (SRB), a pink dye that binds to the fixed cells, is added and the cells are washed again. The dye that remains represents the adherent cell mass and is determined spectroscopically. The automatically acquired data are evaluated by computer and lead, for the compound according to the invention 5-fluoro-2′-deoxyuridylyl-(5′-5′)-3′-C-ethynylcytidine and 5-fluoro-2′-deoxyuridylyl-(3′-5′)-3′-C-ethynylcytidine, to the following results, the data for the 3′-5′-coupled dimer being shown in bold above the data for the 5′-5′-coupled isomer.
# ACHN = assay: cells; assay type: cell-based; details: 48 h; for TGI: ACHN (kidneys), 100% growth inhibition, SRB; for CC50: Homo sapiens, ACHN, read-out: LC50
# Method: as §1
# BT-549 = assay: cells; assay type: cell-based; details: for TGI: BT-549 (breast), 100% growth inhibition, 48 h, SRB; for CC50: Homo sapiens, BT-549, 48 h, read-out: LC50
# Method: as §1
# CAK-1 = assay: cells; assay type: cell-based; details: 48 h; for CC50: read-out: LC50; for TGI: CAK-1 (kidneys), 100% growth inhibition, SRB
# Method: as §1
# DU-145 = assay: cells; assay type: cell-based; details: for TGI: DU-145 (prostate), 100% growth inhibition, 48 h, SRB; for CC50: Homo sapiens, DU-145, 48 h, read-out: LC50
# Method: as §1
# EKVX = assay: cells; assay type: cell-based; details: 48 h; for TGI: EKVX (lung), 100% growth inhibition, SRB; for CC50: Homo sapiens, EKVX, read-out: LC50
# Method: as §1
# HCC-2998 = assay: cells; assay type: cell-based; details: for TGI: HCC-2998 (intestine), 100% growth inhibition, 48 h, SRB; for CC50: Homo sapiens, HCC 2998, 48 h, read-out: LC50
# Method: as §1
# HCT-15 = assay: cells; assay type: cell-based; details: for TGI: HCT-15 (intestine), 100% growth inhibition, 48 h, SRB; for CC50: Homo sapiens, HCT-15, 48 h, read-out: LC50
# Method: as §1
# HOP-92 = assay: cells; assay type: cell-based; details: for TGI: HOP-92 (lung), 100% growth inhibition, 48 h, SRB; for CC50: Homo sapiens, HOP-92, 48 h, read-out: LC50
# Method: as §1
# IGROV1 = assay: cells; assay type: cell-based; details: for CC50: Homo sapiens, IGROV-1, 48 h, read-out: LC50; for TGI: IGROV1 (ovaries), 100% growth inhibition, 48 h, SRB
# Method: as §1
# LOX IMVI = assay: cells; assay type: cell-based; details: 48 h; for CC50: Homo sapiens, LOX IMVI, read-out: LC50; for TGI: LOX IMVI (melanoma), 100% growth inhibition, SRB
# Method: as §1
# MCF7 = assay: cells; assay type: cell-based; details: for CC50: Homo sapiens, MCF7, 48 h, read-out: LC50; for TGI: MCF7 (breast), 100% growth inhibition, 48 h, SRB
# Method: as §1
# NCI-H522 = assay: cells; assay type: cell-based; details: for CC50: Homo sapiens, NCI-H522, 48 h, read-out: LC50; for TGI: NCI-H522 (lung), 100% growth inhibition, 48 h, SRB
# Method: as §1
# SF-295 = assay: cells; assay type: cell-based; details: for CC50: Homo sapiens, SF-295, 48 h, read-out: LC50; for TGI: SF-295 (central nervous system), 100% growth inhibition, 48 h, SRB
# Method: as §1
# SF-539 = assay: cells; assay type: cell-based; details: for CC50: Homo sapiens, SF-539, 48 h, read-out: LC50; for TGI: SF-539 (central nervous system), 100% growth inhibition, 48 h, SRB
# Method: as §1
# SK-MEL-2 = assay: cells; assay type: cell-based; details: for LC50: Homo sapiens, SK-MEL-2, 48 h, read-out: LC50; for TGI: SK-MEL-2 (melanoma), 100% growth inhibition, 48 h, SRB
# Method: as §1
# SNB-75 = assay: cells; assay type: cell-based; details: for CC50: Homo sapiens, SNB-75, 48 h, read-out: LC50; for TGI: SNB-75 (central nervous system), 100% growth inhibition, 48 h, SRB
# Method: as §1
# T-47D = assay: cells; assay type: cell-based; details: 48 h; for CC50: Homo sapiens, T47D, read-out: LC50; for TGI: T-47D (breast), 100% growth inhibition, SRB
# Method: as §1
# Tumor cell lines = assay: Cytostatic action in vitro, comparison over the tumor cell lines; assay type: cell-based
# Method: as §1
# [1] = test system: LOX IMVI melanoma xenograft
# Method: A cell suspension of 5×10^6 tumor cells (LOX IMVI, cell line 01/A/1) was implanted subcutaneously in female athymic nude mice (Animal Production Area, Frederick, Md.). Intraperitoneal administration of the active substance began 3 days after tumor implantation. For this, the active substance was administered dissolved in 10% DMSO/common salt solution plus Tween® 80.
# Administration was carried out in each case over a four-day period and comprised a total of 5 treatments. The tests were evaluated by determining the T/C values.
# For a model based on solid tumors, a T/C value of 40 must be reached to be regarded as effective.
smiles,measurement,setting,value
"C#CC1(O)C(COP(=O)(O)OC2C[C@H](n3cc(F)c(=O)[nH]c3=O)O[C@@H]2CO)OC(n2ccc(N)nc2=O)C1O (stereo in doubt) [Example 1, 5-fluoro-2′-deoxyuridylyl-(3′-5′)-3′-C-ethynylcytidine]",TGI,A549/ATCC,29.6 µM
same,CC50,A549/ATCC,> 100 µM
same,TGI,ACHN,1.52 µM
same,CC50,ACHN,> 100 µM
same,TGI,BT-549,0.346 µM
same,CC50,BT-549,6.39 µM
same,CC50,CAK-1,> 100 µM
same,TGI,CAK-1,0.0829 µM
same,TGI,DU-145,0.44 µM
same,CC50,DU-145,> 100 µM
same,TGI,EKVX,6.37 µM
same,CC50,EKVX,> 100 µM
same,TGI,HCC-2998,0.109 µM
same,CC50,HCC-2998,1.73 µM
same,TGI,HCT-15,15.1 µM
same,CC50,HCT-15,> 100 µM
same,TGI,HOP-92,2.18 µM
same,CC50,HOP-92,> 100 µM
same,CC50,IGROV1,> 100 µM
same,TGI,IGROV1,12.9 µM
same,CC50,LOX IMVI,91.5 µM
same,TGI,LOX IMVI,0.348 µM
same,CC50,MCF7,> 100 µM
same,TGI,MCF7,0.137 µM
same,CC50,NCI-H522,> 100 µM
same,TGI,NCI-H522,1.15 µM
same,CC50,SF-295,> 100 µM
same,TGI,SF-295,1.07 µM
same,CC50,SF-539,32.2 µM
same,TGI,SF-539,0.167 µM
same,LC50,SK-MEL-2,69.5 µM
same,TGI,SK-MEL-2,0.424 µM
same,CC50,SNB-75,4.72 µM
same,TGI,SNB-75,0.882 µM
same,CC50,T-47D,> 100 µM
same,TGI,T-47D,26.7 µM
same,effectiveness compared with the 5′-5′-coupled duplex active substance (example 2),"Tumor cell lines; in vitro, tumor cell lines of the table",much more effective
same,TGI values lower compared with the 5′-5′-coupled isomer,"Tumor cell lines; often, over the tumor cell lines",up to 1000 times
same,optimum T/C value,"[1]; 11.2 mg/kg/injection intraperitoneal, 5 treatments, day 13, nude mice",16
same,maximum T/C value,"[1]; 16.75 mg/kg/injection intraperitoneal, 5 treatments, day 11 after tumor implantation, nude mice",7
same,in vivo activity in the tumor model,"[1]; LOX IMVI xenograft, overall conclusion",significant in vivo activity
"C#CC1(O)C(COP(=O)(O)OC[C@H]2O[C@@H](n3cc(F)c(=O)[nH]c3=O)CC2O)OC(n2ccc(N)nc2=O)C1O (stereo in doubt) [Example 2, 5-fluoro-2′-deoxyuridylyl-(5′-5′)-3′-C-ethynylcytidine]",TGI,A549/ATCC,>100 µM
same,CC50,A549/ATCC,> 100 µM
same,TGI,ACHN,>100 µM
same,CC50,ACHN,> 100 µM
same,TGI,BT-549,11.6 µM
same,CC50,BT-549,> 100 µM
same,CC50,CAK-1,> 100 µM
same,TGI,CAK-1,>100 µM
same,TGI,DU-145,>100 µM
same,CC50,DU-145,> 100 µM
same,TGI,EKVX,>100 µM
same,CC50,EKVX,> 100 µM
same,TGI,HCC-2998,2.95 µM
same,CC50,HCC-2998,57.2 µM
same,TGI,HCT-15,>100 µM
same,CC50,HCT-15,> 100 µM
same,TGI,HOP-92,21.5 µM
same,CC50,HOP-92,> 100 µM
same,CC50,IGROV1,> 100 µM
same,TGI,IGROV1,>100 µM
same,CC50,LOX IMVI,≥ 100 µM
same,TGI,LOX IMVI,100 µM
same,CC50,MCF7,> 100 µM
same,TGI,MCF7,>100 µM
same,CC50,NCI-H522,> 100 µM
same,TGI,NCI-H522,>100 µM
same,CC50,SF-295,> 100 µM
same,TGI,SF-295,20.6 µM
same,CC50,SF-539,> 100 µM
same,TGI,SF-539,2.01 µM
same,LC50,SK-MEL-2,76.4 µM
same,TGI,SK-MEL-2,5.78 µM
same,CC50,SNB-75,> 100 µM
same,TGI,SNB-75,>100 µM
same,CC50,T-47D,> 100 µM
same,TGI,T-47D,>100 µM
